Laboratory results reported in patent US10023841B2, “Methods and compositions for treating breast cancer with dendritic cell vaccines” (Baylor Research Institute, priority 2014, dated 2018).

Tested on: TAK1
Test: Phosphorylated TAK1 (FACS) in monocytes or mDCs
Assay type: cell-based, human
Settings: monocytes; 10 ng/ml TGF-β1 for 5-90 minutes

In the case of “TGF-β1: soluble TGF-β1 used to treat monocytes”, the “phosphorylation of TAK1” value is reported as “induce phosphorylation of TAK1 as early as 15 minutes”.
